The structures appear in SMILES notation.

The source of these data is patent US10508090B2, “Sulfonamides as GPR40- and GPR120-agonists” (DOMPÉ FARMACEUTICI S.P.A., priority 2016, dated 2019).

The test system of assay [1] is STC-1 cells. Put plainly: In vitro GLP-1 secretion in STC-1 cells (ELISA). The format is cell-based, murine. As to conditions: for fold induction at 30 µM: Mus musculus, STC-1, 0.5 h, compound at 30 μM for 30 minutes, STC-1 cells, read-out: GLP-1 RELEASE STC-1, fold of increase over DMSO. As for the experimental part:
(§1) GPR120/40 Activation: In Vitro GLP-1 Secretion
(§2) 2×10^5 STC-1 cells were seeded in a 12-plate and 24 hours later were treated with selected compounds. 1×10^6 NCI-H716 cells were differentiated in matrigel-coated 12-plate and treated 48 h hours later.
(§3) The day of the experiment, wells were washed once with 1 ml of PBS and then cells were stimulated with 0.5 ml of DMEM (w/o serum, w/o phenol-red) containing 30 μM of selected compounds in STC1 and 100 μM in differentiated NCIH716 for 30 minutes. DMSO has been used as negative control, α-linolenic acid (ALA) (endogenous agonist) as positive control. After stimulations, supernatants were collected, centrifuged at 4000 rpm for 4′ at 4° C., and used for the GLP1 detection by ELISA.
(In general: An ELISA detects its analyte on a solid surface through an enzyme-linked reagent.)

Assay [2] deals with T1, human GPR40 (Homo sapiens, UniProt O14842).
T1 construct: expressed in transfected cells; host or cells: CHO-k1
T1 sequence (O14842 whole entry): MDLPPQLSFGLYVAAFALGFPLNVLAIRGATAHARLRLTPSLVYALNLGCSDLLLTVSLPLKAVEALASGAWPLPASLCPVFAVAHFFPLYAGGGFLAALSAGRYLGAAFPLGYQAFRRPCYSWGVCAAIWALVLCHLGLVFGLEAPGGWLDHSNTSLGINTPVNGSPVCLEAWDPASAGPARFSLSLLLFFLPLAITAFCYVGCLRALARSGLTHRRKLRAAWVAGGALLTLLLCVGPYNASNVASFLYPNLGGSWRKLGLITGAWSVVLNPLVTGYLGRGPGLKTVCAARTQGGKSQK
Description: In vitro Ca2+ mobilization, CHO-k1 cells stably expressing human GPR40. The conditions noted are these: for AC50: intracellular calcium, CHO-k1 cells expressing human GPR40, read-out: Ca2+ hGPR40 AC50. The format is cell-based. As to the method: (§4) GPR120/40 Activation: In Vitro Ca^2+ Mobilization
(§5) The activation of GPR120/40 by all compounds was determined by measuring changes in intracellular calcium levels using a Ca^2+ sensitive fluorescent dye.
(§6) The experiments were performed using CHO-k1 cells stably expressing the human GPR120 or GPR40. Cells were seeded 10000 cells/well in 384-plates in complete medium and grown overnight at 37° C., 5% CO2. 24 h after seeding, cell culture media was removed and cells were loaded with the fluorescent Ca^2+ indicator (Fluo-8 NW dye in Tyrode's buffer). Dye-loaded cell plates were incubated for 1 h at room temperature under a yellow light sodium lamp.
(§7) Cell were treated with test compounds and controls at 10, 30 and 60 μM. The kinetic response was monitored over a period of 7 minutes (using FLIPRTETRA system). A second injection of 3× concentrated reference agonist at ˜EC50 were then administered to cells and the signal of the emitted fluorescence was measured over a period of additional 3 minutes. The agonist effect is expressed as a percentage of activation, with 100% activation being a result in which the Response Values of the test wells reach a level identical to the one of the Stimulator Controls (alpha linolenic acid reference agonist EC100). 0% activation is a result in which the Response Values of the test wells reach a level identical to the one of the Neutral Controls (assay buffer) in the AGO_KRV (Agonist Kinetic Response Value) response value.
(In general: Calcium flux is commonly read through the fluorescence of an indicator in the cells.)

Assay [3] has as its system NCI-H716 cells. Description: In vitro GLP-1 secretion in differentiated NCI-H716 cells (ELISA). The format is cell-based, human. As to conditions: for fold induction at 100 µM: Homo sapiens, NCI-H716, 0.5 h, compound at 100 μM for 30 minutes, differentiated NCI-H716 cells, read-out: GLP-1 RELEASE NCI, fold of increase over DMSO. As for the experimental part:
as §1, §2, §3

Assay [4] addresses T2, human GPR120 (Homo sapiens, UniProt Q5NUL3).
T2 construct: expressed in transfected cells; host or cells: CHO-k1
T2 sequence (Q5NUL3 1-361): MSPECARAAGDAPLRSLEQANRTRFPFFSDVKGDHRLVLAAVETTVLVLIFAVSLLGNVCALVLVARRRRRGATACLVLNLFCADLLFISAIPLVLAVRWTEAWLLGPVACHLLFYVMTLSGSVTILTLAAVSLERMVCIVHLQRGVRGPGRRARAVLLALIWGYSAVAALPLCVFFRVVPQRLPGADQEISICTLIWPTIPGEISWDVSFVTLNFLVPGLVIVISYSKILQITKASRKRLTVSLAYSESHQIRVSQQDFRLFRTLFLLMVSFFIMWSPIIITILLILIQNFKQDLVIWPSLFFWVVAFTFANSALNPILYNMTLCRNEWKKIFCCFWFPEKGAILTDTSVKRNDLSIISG
Put plainly: In vitro Ca2+ mobilization, CHO-k1 cells stably expressing human GPR120. The format is cell-based. As to conditions: for AC50: intracellular calcium, CHO-k1 cells expressing human GPR120, read-out: Ca2+ hGPR120 AC50. As for the experimental part: as §4, §5, §6, §7

As a reminder, the AC50 is the midpoint of the concentration-response curve, whichever way the signal moves. Take `Cc1cc(F)cc(C)c1NS(=O)(=O)c1cccc(CCCCCCC(=O)O)c1` [Example 1, 7-(3-(N-(4-fluoro-2,6-dimethylphenyl)sulfamoyl)phenyl)heptanoic acid]: in assay [1], the “GLP-1 secretion in STC1 (murine) cells, in words” value is “efficacious” and the fold induction at 30 µM was 1.87 ± 0.5. For the same molecule, in assay [2], the “agonistic activity on GPR40 (AC50 in the calcium mobilization assay), in words” value is “low microMolar range” and the AC50 came to 140 µM. Further, in assay [3], the “GLP-1 secretion in NCI-H716 (human) cells, in words” value is on record as “efficacious” and the fold induction at 100 µM was found to be 1.08 ± 0.1. In assay [4], the “agonistic activity on GPR120 (AC50 in the calcium mobilization assay), in words” value was “low microMolar range” and the AC50 worked out at 5.24 µM.
For the molecule `Cc1nsc(NS(=O)(=O)c2cccc(CCCCCCC(=O)O)c2)n1` [Example 17, 7-(3-(N-(3-methyl-1,2,4-thiadiazol-5-yl)sulfamoyl)phenyl)heptanoic acid], in assay [1], the fold induction at 30 µM turned out to be 1.9 ± 0.51. Further, the figures for the AC50 in assay [2] and in assay [4] were 13.9 µM and 22.3 µM, respectively. In assay [3], the fold induction at 100 µM worked out at 2.19 ± 1.22.
In the case of `Cc1cc(C(C)C)cc(C)c1NS(=O)(=O)c1cccc(CCCCCCC(=O)O)c1` [Example 3, 7-(3-(N-(4-isopropyl-2,6-dimethylphenyl)sulfamoyl)phenyl)heptanoic acid], in assay [1], the “GLP-1 secretion in STC1 (murine) cells, in words” value was “efficacious” and the fold induction at 30 µM was found to be 2.7 ± 0.31. Also, in assay [2], the “agonistic activity on GPR40 (AC50 in the calcium mobilization assay), in words” value is “low microMolar range” and the AC50 was found to be 12.9 µM. For the same molecule, in assay [3], the “GLP-1 secretion in NCI-H716 (human) cells, in words” value is listed as “efficacious” and the fold induction at 100 µM amounted to 2.5 ± 0.11. In addition, in assay [4], the “agonistic activity on GPR120 (AC50 in the calcium mobilization assay), in words” value is on record as “low microMolar range” and the half-maximal activity concentration (AC50) was found to be 1.98 µM.
